In PubChem BioAssay (NCI) one finds TGI data, which are given here for 16 molecules.

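Each compound was tested at five concentrations against cells in 96-well plates for 48 hours. The concentration for full growth arrest is given as TGI.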

What all share (experiment): NCI tumour cell line growth inhibition, 48 h
In test [1] the test system is A498 renal.
The subject of test [2] is BT-549 breast.
Test [3] concerns HT29 colon.
Test [4] deals with NCI-H522 lung.
Test [5] relates to OVCAR-8 ovarian.
Test [6] deals with SN12C renal.
Test [7] concerns TK-10 renal.
In test [8] the test system is UACC-62 melanoma.

For `CCN(CC)CCNc1ccc2ncn3c4cc(OC)c(OC)c(=O)c4c(O)c1c23`, the TGI in test [1] stood at 29.5 µM; in test [2], 30.5 µM; in test [3], 19.8 µM; in test [4] it was 25.9 µM; in test [5] it was 27.9 µM; in test [6] it was 21.5 µM. The results for the TGI in test [7] and in test [8] were 31.6 µM and 36.6 µM, respectively.
As for `CC12CC1C(c1cccc([N+](=O)[O-])c1)(c1cccc([N+](=O)[O-])c1)N=N2` (stereo not drawn), the TGI was over 100 µM in test [1]; 45.8 µM in test [2]; over 100 µM in test [3]; 23.2 µM in test [4]; 74.4 µM in test [5]; 55 µM in test [6]. Moreover, the values for the TGI in test [7] and in test [8] were over 100 µM and 44.1 µM, respectively.
For `N#CCCN(CCC#N)c1ccc(/C=C2\SC(=S)NC2=O)cc1Br`, the TGI in test [1], in test [2], in test [3], in test [4], in test [5] and in test [6] was over 100 µM throughout. The TGI in test [7] and in test [8] was over 100 µM each time.
As to `O=C(O)c1ccc2c(c1)CC1(C2)Cc2cc3c(cc2C1=O)CCC3` (stereo not drawn), the TGI in test [1], in test [2], in test [3], in test [4], in test [5] and in test [6] was over 100 µM throughout. Besides, the TGI in test [7] and in test [8] was over 100 µM in each case.
Regarding `C=C1C(=O)OC2/C=C(/C)C3(O)OC(C)(CC(OC(=O)C(C)C)C12)CC3OC(C)=O` (stereo not drawn), the TGI in test [1] is 15.5 µM; in test [2], 22.3 µM; in test [3], 22 µM; in test [4] it was 6.25 µM; in test [5] it was over 100 µM; in test [6] it was 17.5 µM. For the same molecule, the TGI turned out to be 24.4 µM in test [7] and 31.6 µM in test [8].
Turning to `Cc1ccc(S(=O)(=O)NC(=O)NNc2ccc(F)cc2)cc1`, the TGI is over 100 µM in test [1]; over 31.6 µM in test [2]; over 100 µM in test [3]; over 100 µM in test [4]; over 100 µM in test [5]; over 100 µM in test [6]. Also, the TGI in test [7] and in test [8] was over 100 µM each time.
As for `O/C(=C\c1nc2ccccc2nc1NC12CC3CC(CC(C3)C1)C2)c1ccc(Br)cc1`, the TGI in test [1], in test [2], in test [3], in test [4], in test [5] and in test [6] was over 10 µM each time. Besides, the TGI in test [7] and in test [8] was over 10 µM throughout.
`O=C(O)c1c2c(cc3c1CC1(Cc4ccccc4C1=O)C3)CCC2` (stereo not drawn): the TGI is 96 µM in test [1]; over 93.4 µM in test [2]; over 69.7 µM in test [3]; 64.5 µM in test [4]; over 100 µM in test [5]; over 100 µM in test [6]. Moreover, the TGI in test [7] and in test [8] was over 100 µM throughout.
On to `COc1ccc(N=NC(=Nc2ccc(F)cc2)c2ccc(N(CCC#N)CCC#N)cc2)cc1`, for which the TGI in test [1] is 76.3 µM; in test [2] it was 70.8 µM; in test [3], over 100 µM; in test [4], 47 µM; in test [5] it was over 100 µM; in test [6] it was over 100 µM. The TGI was over 100 µM in test [7] and 57.3 µM in test [8].
For `CCCOC(=O)NC(C)C(=O)NC(CCC(=O)NC(CCCC(N)C(=O)O)C(=O)NC(C)C(=O)O)C(=O)O` (stereo not drawn), the TGI is over 100 µM in test [1]; 37.9 µM in test [2]; 38.4 µM in test [3]; over 100 µM in test [4]; 33.9 µM in test [5]; over 100 µM in test [6]. The TGI was over 100 µM in test [7] and 33.7 µM in test [8].
In the case of `CCOC(=O)C(C)c1nc2c(Cl)c3ncccc3cc2[nH]c1=O` (stereo not drawn), the TGI in test [1], in test [2], in test [3], in test [4], in test [5] and in test [6] was over 100 µM each time. The TGI in test [7] and in test [8] was over 100 µM throughout.
On to `COC(=O)C1(Cc2ccc3c(c2)CCC3)Cc2cc3c(cc2C1)CCC3`, for which the TGI in test [1] was over 100 µM; in test [2], over 100 µM; in test [3], 89.3 µM; in test [4], 56.5 µM; in test [5], over 100 µM; in test [6], over 100 µM. Also, the TGI in test [7] and in test [8] was over 100 µM in each case.
Consider `c1ccc(-c2cnc(-c3ccc(-c4ncc(-c5ccccc5)o4)cc3)o2)cc1`, for which the TGI in test [1], in test [2], in test [3], in test [4], in test [5] and in test [6] was over 100 µM throughout. Further, the TGI in test [7] and in test [8] was over 100 µM each time.
In the case of `Cc1ccc(-c2c(C#N)c(-c3ccc([N+](=O)[O-])cc3)c(C#N)c(=O)n2NS(=O)(=O)c2ccccc2)cc1`, the TGI in test [1] is over 100 µM; in test [2] it was 94.9 µM; in test [3], over 100 µM; in test [4], over 100 µM; in test [5], over 100 µM; in test [6], over 100 µM. The TGI in test [7] was over 100 µM; in test [8], 64 µM.
Regarding `Cc1cn2c(C)csc2c1P(=O)(OC(C)C)OC(C)C`, the TGI in test [1], in test [2], in test [3], in test [4], in test [5] and in test [6] was over 100 µM throughout. Also, the TGI in test [7] and in test [8] was over 100 µM in each case.
`Cn1ccnc1Sc1ccc(C=Nc2ccc3nc(SCC(=O)NC4CCCCC4)sc3c2)cc1[N+](=O)[O-]`: the TGI in test [1] was 48.2 µM; in test [2] it was 46.8 µM; in test [3], over 100 µM; in test [4], over 100 µM; in test [5] it was over 100 µM; in test [6], over 100 µM. Besides, the TGI in test [7] is 32.2 µM; in test [8] it was over 100 µM.
